Assay results published in patent US11213511B2, “Composition for preventing or treating SARS coronavirus 2 infection disease” (priority 2020, dated 2022).
Several values for one entry are separate records, joined by “and”; a condition that tells them apart may be missing. Identical values can stand only once. Like-named read-outs stand apart in the source and are kept apart here.

Columns and labels:
VERO cell = conditions: for Viability: 72 hours, MTT; for cell survival: 10 to 20 μM
[1] = system: severe acute respiratory syndrome coronavirus 2; assay: Medicament efficacy of Sulfinpyrazone in SARS coronavirus 2 infected animal model (Example 7); assay type: in vivo, Syrian Hamster; conditions: 50 MPK (50 mg/kg/day), PO twice daily, 4 days of continuous administration, vs virus alone infected group
SARS-CoV-2 3CL protease = SARS-CoV-2 3CL protease (Severe acute respiratory syndrome coronavirus 2, UniProt P0DTD1); assay: biochemical; conditions: for inhibition at 30 µM: read-out: activity of 3CL protease inhibited
[2] = biological target: T1, ACE2 and SARS-CoV-2 Spike S1 protein binding (UniProt P0DTC2+Q9BYF1); assay: biochemical
T1 construct: Spike S1, Fc fusion, Avi-tag, Biotin Labeled (SARS-CoV-2) (BPS Bioscience, 100679); Fc fusion; Avi-tag (biotin labeled); His-Tag (Eu-labeled); purchased BPS Bioscience 100705 (ACE2); 100679 (Spike S1)

SARS CoV-2 (NCCP-43326) [3] = assay: Observation of cell morphology according to medicament treatment; assay type: cell-based; conditions: 10 to 20 μM, VERO cell, FIG. 3
SARS CoV-2 (NCCP-43326) [4] = assay type: cell-based
[5] = system: severe acute respiratory syndrome coronavirus 2; parameters: species or system Syrian Hamster; conditions: hamster, in vivo

T1 sequence (Q9BYF1 18-740, one chain of several): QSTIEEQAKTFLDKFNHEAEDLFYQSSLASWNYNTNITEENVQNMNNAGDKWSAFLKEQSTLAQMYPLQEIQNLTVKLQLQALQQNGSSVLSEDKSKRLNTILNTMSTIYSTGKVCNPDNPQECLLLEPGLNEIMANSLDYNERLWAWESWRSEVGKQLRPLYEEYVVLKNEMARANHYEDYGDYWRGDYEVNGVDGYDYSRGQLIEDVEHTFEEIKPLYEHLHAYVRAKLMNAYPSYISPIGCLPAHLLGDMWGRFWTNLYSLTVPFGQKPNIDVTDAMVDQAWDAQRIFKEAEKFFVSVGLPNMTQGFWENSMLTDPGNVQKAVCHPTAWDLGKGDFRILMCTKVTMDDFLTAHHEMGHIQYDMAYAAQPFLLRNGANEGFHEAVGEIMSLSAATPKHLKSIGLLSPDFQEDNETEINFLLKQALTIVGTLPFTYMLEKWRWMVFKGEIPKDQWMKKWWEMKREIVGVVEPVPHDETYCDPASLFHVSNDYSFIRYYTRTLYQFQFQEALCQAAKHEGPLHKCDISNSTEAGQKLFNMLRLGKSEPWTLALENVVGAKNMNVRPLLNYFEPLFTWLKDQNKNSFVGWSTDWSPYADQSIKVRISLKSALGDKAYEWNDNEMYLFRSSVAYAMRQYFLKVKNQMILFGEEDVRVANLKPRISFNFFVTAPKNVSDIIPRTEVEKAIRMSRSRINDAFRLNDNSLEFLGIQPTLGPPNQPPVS

In the case of O=C1C(CC[S+]([O-])c2ccccc2)C(=O)N(c2ccccc2)N1c1ccccc1 (racemic) [Sulfinpyrazone, 1,2-diphenyl-4-[2-(phenylsulfinyl)ethyl]pyrazolidine-3,5-dione], the Viability (VERO cell; 10 μM) is reported as 108.3 ± 0.4%, the Viability (VERO cell; 20 μM) is reported as 99.6 ± 7.3% and the cell survival (VERO cell) is reported as “excellent cell survival”. For the same compound, the “Gross pneumonia lesion amelioration percentage (%)” value [1] was 15.6%, the activity at 0.001 µM (SARS-CoV-2 3CL protease) was 96% and the activity at 0.003 µM (SARS-CoV-2 3CL protease) was 104%. It also gave an activity at 0.01 µM (SARS-CoV-2 3CL protease) of 100%, an activity at 0.03 µM (SARS-CoV-2 3CL protease) of 103% and an activity at 0.1 µM (SARS-CoV-2 3CL protease) of 103%. It also gave an activity at 0.3 µM (SARS-CoV-2 3CL protease) of 102%, an activity at 1 µM (SARS-CoV-2 3CL protease) of 99% and an activity at 3 µM (SARS-CoV-2 3CL protease) of 92%. The activity at 10 µM (SARS-CoV-2 3CL protease) was 90%, the activity at 30 µM (SARS-CoV-2 3CL protease) was 82% and the “% Activity” value (SARS-CoV-2 3CL protease; 0.001 µM) was 101%. The “% Activity” value (SARS-CoV-2 3CL protease; 0.003 µM) was 101%, the “% Activity” value (SARS-CoV-2 3CL protease; 0.01 µM) was 101% and the “% Activity” value (SARS-CoV-2 3CL protease; 0.3 µM) was 94%. For the same compound, the “% Activity” value (SARS-CoV-2 3CL protease; 1 µM) was 98%, the “% Activity” value (SARS-CoV-2 3CL protease; 3 µM) was 95% and the “% Activity” value (SARS-CoV-2 3CL protease; 10 µM) was 95%. For the same compound, the “% Activity” value (SARS-CoV-2 3CL protease; 30 µM) was 80%, the inhibition at 30 µM (SARS-CoV-2 3CL protease) was about 20% and the TR-FRET ratio [2] was 0.96 and 0.97 and 0.95 and 0.93 and 0.94. It also gave an activity at 0.002 µM [2] of 96%, an activity at 0.005 µM [2] of 97% and an activity at 0.014 µM [2] of 100%. The activity at 0.041 µM [2] was 98%, the activity at 0.123 µM [2] was 100% and the activity at 0.37 µM [2] was 99%. For the same compound, the activity at 1.111 µM [2] was 101%, the activity at 3.333 µM [2] was 98% and the activity at 10 µM [2] was 100%. The activity at 30 µM [2] was 99%, the “efficacy in inhibiting the binding of ACE2 and Spike S1 proteins” value [2] was “no efficacy” and the “% Activity” value ([2]; 0.002 µM) was 95%. For the same compound, the “% Activity” value ([2]; 10 µM) was 95%, the “change in cell morphology of virus-infected cells” value (SARS CoV-2 (NCCP-43326) [3]) was “morphology change was small” and the “CPE Reduction (%)” value (SARS CoV-2 (NCCP-43326) [4]) was 33.1 ± 7.0% and 40.7 ± 8.0%.

Work on CCC(CC)COC(=O)[C@H](C)N[P@](=O)(OC[C@H]1O[C@@](C#N)(c2ccc3c(N)ncnn23)[C@H](O)[C@@H]1O)Oc1ccccc1 [Remdesivir] yielded a gross cure rate [5] of 44.3%.

For COc1cc(C(=O)NS(=O)(=O)c2ccccc2C)ccc1Cc1cn(C)c2ccc(NC(=O)OC3CCCC3)cc12 [Zafirlukast, cyclopentyl3-{2-methoxy-4-[(o-tolylsulfonyl)carbamoyl]benzyl}-1-methyl-1H-indol-5-ylcarbamate], the Viability (VERO cell; 10 μM) was 109.7 ± 2.8%, the Viability (VERO cell; 20 μM) was 89.3 ± 0.7% and the cell survival (VERO cell) was “excellent cell survival”. The activity at 0.001 µM (SARS-CoV-2 3CL protease) was 100%, the activity at 0.003 µM (SARS-CoV-2 3CL protease) was 95% and the activity at 0.01 µM (SARS-CoV-2 3CL protease) was 94%. It also gave an activity at 0.03 µM (SARS-CoV-2 3CL protease) of 97%, an activity at 0.1 µM (SARS-CoV-2 3CL protease) of 95% and an activity at 0.3 µM (SARS-CoV-2 3CL protease) of 95%. It also gave an activity at 1 µM (SARS-CoV-2 3CL protease) of 90%, an activity at 3 µM (SARS-CoV-2 3CL protease) of 89% and an activity at 10 µM (SARS-CoV-2 3CL protease) of 78%. The activity at 30 µM (SARS-CoV-2 3CL protease) was 52%, the “% Activity” value (SARS-CoV-2 3CL protease; 0.003 µM) was 98% and the “% Activity” value (SARS-CoV-2 3CL protease; 0.01 µM) was 103%. For the same compound, the “% Activity” value (SARS-CoV-2 3CL protease; 0.03 µM) was 99%, the “% Activity” value (SARS-CoV-2 3CL protease; 0.3 µM) was 98% and the “% Activity” value (SARS-CoV-2 3CL protease; 3 µM) was 87%. The “% Activity” value (SARS-CoV-2 3CL protease; 10 µM) was 77%, the “% Activity” value (SARS-CoV-2 3CL protease; 30 µM) was 55% and the inhibition at 30 µM (SARS-CoV-2 3CL protease) was at least 45%. The activity at 0.002 µM [2] was 91%, the activity at 0.005 µM [2] was 96% and the activity at 0.014 µM [2] was 92%. It also gave an activity at 0.041 µM [2] of 99%, an activity at 0.123 µM [2] of 97% and an activity at 0.37 µM [2] of 101%. It also gave an activity at 1.111 µM [2] of 93%, an activity at 3.333 µM [2] of 102% and an activity at 10 µM [2] of 96%. For the same compound, the activity at 30 µM [2] was 95%, the “efficacy in inhibiting the binding of ACE2 and Spike S1 proteins” value [2] was “no efficacy” and the “% Activity” value ([2]; 0.005 µM) was 94%. For the same compound, the “% Activity” value ([2]; 10 µM) was 98%, the “change in cell morphology of virus-infected cells” value (SARS CoV-2 (NCCP-43326) [3]) was “morphology change was small” and the “CPE Reduction (%)” value (SARS CoV-2 (NCCP-43326) [4]) was 60.1 ± 7.1% and 75.6 ± 3.9%. The “amelioration effects in the gross lung lesion” value [5] was “very excellent amelioration effects”, the “amelioration in bilateral pneumonia, pulmonary edema, and pulmonary bleeding aspects” value ([5]; po) was “excellent amelioration” and the “treatment effect compared to the control medicament Remdesivir” value ([5]; po) was “superior treatment effect”.
